# The source made the active and inactive calls. No cut-off for these calls is given here.
# How the values were obtained:
# [1] = biological target: T1, Nuclear factor erythroid 2-related factor 2 (Rattus norvegicus) (UniProt O54968); test: Activation of Nrf2 in rat HBZY-1 cells assessed as increase in GCLM level at 6 uM by Western blot analysis; format: cell-based
# T1 sequence (whole entry): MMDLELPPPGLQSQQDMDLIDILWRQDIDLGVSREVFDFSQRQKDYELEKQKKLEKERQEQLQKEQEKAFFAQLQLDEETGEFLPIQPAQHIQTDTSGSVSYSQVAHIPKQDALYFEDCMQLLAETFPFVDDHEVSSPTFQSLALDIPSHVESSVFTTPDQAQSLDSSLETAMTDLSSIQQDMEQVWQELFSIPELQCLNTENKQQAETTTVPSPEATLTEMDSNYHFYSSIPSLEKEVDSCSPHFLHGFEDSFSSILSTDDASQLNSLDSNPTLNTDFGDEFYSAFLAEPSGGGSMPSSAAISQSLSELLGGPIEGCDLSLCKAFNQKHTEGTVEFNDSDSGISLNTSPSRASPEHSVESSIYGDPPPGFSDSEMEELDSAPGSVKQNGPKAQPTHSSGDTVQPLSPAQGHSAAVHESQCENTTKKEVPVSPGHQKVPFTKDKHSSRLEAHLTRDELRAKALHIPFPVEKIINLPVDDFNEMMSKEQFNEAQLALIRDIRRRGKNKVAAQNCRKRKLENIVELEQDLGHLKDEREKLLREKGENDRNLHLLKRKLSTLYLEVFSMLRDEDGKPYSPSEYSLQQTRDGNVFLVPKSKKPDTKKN
# [2] = biological target: T1, Nuclear factor erythroid 2-related factor 2 (Rattus norvegicus); test: Activation of Nrf2 in rat HBZY-1 cells assessed as increase in NQO-1 level at 6 uM by Western blot analysis; format: cell-based
# [3] = biological target: T1, Nuclear factor erythroid 2-related factor 2 (Rattus norvegicus); test: Activation of Nrf2 in rat HBZY-1 cells assessed as increase in NQO-1 mRNA expression at 6 uM after 24 hrs by RT-PCR analysis; format: cell-based
# [4] = biological target: T1, Nuclear factor erythroid 2-related factor 2 (Rattus norvegicus); test: Activation of Nrf2 in rat HBZY-1 cells assessed as increase in GCLC mRNA expression at 6 uM after 24 hrs by RT-PCR analysis; format: cell-based
# [5] = biological target: T1, Nuclear factor erythroid 2-related factor 2 (Rattus norvegicus); test: Activation of Nrf2 in rat HBZY-1 cells assessed as increase in HO-1 mRNA expression at 6 uM after 24 hrs by RT-PCR analysis; format: cell-based
# [6] = biological target: T1, Nuclear factor erythroid 2-related factor 2 (Rattus norvegicus); test: Activation of Nrf2 in rat HBZY-1 cells assessed as increase in GCLM mRNA expression at 6 uM after 24 hrs by RT-PCR analysis; format: cell-based
# [7] = biological target: T1, Nuclear factor erythroid 2-related factor 2 (Rattus norvegicus); test: Activation of Nrf2 in rat HBZY-1 cells assessed as increase in HO-1 level at 6 uM by Western blot analysis; format: cell-based
# [8] = biological target: T1, Nuclear factor erythroid 2-related factor 2 (Rattus norvegicus); test: Activation of Nrf2 in rat HBZY-1 cells assessed as increase in GCLC level at 6 uM by Western blot analysis; format: cell-based
# HBZY-1 [9] = test: Cytotoxicity against rat HBZY-1 cells assessed as decrease in cell viability after 72 hrs by MTT assay; format: cell-based; details: HBZY-1, 72 h
# HBZY-1 [10] = test: Cytotoxicity against rat HBZY-1 cells assessed as decrease in cell viability up to 200 uM after 72 hrs by MTT assay; format: cell-based; details: hbzy-1, 72 h
# HBZY-1 [11] = test: Cytoprotection against H2O2-induced cell death in rat HBZY-1 cells assessed as cell viability at 6 uM preincubated for 2 hrs followed by H2O2 addition and measured after 24 hrs by MTT assay (reference value: 62.1%); format: functional; details: read-out: Activity
# HBZY-1 [12] = test: Cytoprotection against H2O2-induced cell death in rat HBZY-1 cells assessed as increase in cell viability preincubated for 2 hrs followed by H2O2 addition and measured after 24 hrs by MTT assay; format: functional, cell-based
# HBZY-1 [13] = test: Cytoprotection against H2O2-induced cell death in rat HBZY-1 cells assessed as cell viability at 100 uM preincubated for 2 hrs followed by H2O2 addition and measured after 24 hrs by MTT assay (reference value: 62.1%); format: functional; details: read-out: Activity
# [14] = biological target: T2, Keap1/Nrf2 (Homo sapiens) (UniProt Q16236+Q14145); test: Induction of Keap1/Nrf2 (unknown origin) interaction assessed as reduction in Nfr2 level in presence of DTT by Western blot analysis; format: protein assay
# T2 sequence (Q14145 whole entry, looked up, one chain of several): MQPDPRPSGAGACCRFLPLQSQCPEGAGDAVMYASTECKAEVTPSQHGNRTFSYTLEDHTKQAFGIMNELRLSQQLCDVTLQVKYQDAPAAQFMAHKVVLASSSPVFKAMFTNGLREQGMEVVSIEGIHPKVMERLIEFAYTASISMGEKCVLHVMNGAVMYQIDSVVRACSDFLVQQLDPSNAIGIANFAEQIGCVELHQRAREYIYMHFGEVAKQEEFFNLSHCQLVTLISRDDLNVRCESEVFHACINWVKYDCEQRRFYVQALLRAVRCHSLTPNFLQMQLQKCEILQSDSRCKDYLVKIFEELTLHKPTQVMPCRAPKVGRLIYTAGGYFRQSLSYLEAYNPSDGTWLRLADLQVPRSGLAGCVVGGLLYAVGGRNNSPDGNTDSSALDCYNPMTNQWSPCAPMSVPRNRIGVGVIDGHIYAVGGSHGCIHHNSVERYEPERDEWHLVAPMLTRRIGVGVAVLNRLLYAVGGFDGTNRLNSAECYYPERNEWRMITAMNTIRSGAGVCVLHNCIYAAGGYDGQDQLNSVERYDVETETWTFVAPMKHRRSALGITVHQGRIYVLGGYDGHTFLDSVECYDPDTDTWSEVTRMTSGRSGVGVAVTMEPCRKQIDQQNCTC
# HBZY-1 [15] = test: Cytoprotection against H2O2-induced cell death in rat HBZY-1 cells assessed as increase in cell viability at 6 uM preincubated for 2 hrs with 3 nM ZNPP prior to compound addition followed by 2 hrs incubation before H2O2 addition and measured after 24 hrs by MTT assay; format: functional, cell-based
# HBZY-1 [16] = test: Cytoprotection against H2O2-induced cell death in rat HBZY-1 cells assessed as increase in cell viability at 6 uM preincubated for 2 hrs with 10 nM BSO prior to compound addition followed by 2 hrs incubation before H2O2 addition and measured after 24 hrs by MTT assay; format: functional, cell-based
# [17] = biological target: T2, Keap1/Nrf2 (Homo sapiens); test: Induction of Keap1/Nrf2 (unknown origin) interaction assessed as increase in Nfr2 level in presence of DTT by Western blot analysis; format: protein assay
# [18] = biological target: T2, Keap1/Nrf2 (Homo sapiens); test: Induction of Keap1/Nrf2 (unknown origin) interaction assessed as reduction in Nfr2 level in absence of DTT by Western blot analysis; format: protein assay
# HBZY-1 [19] = test: Cytoprotection against H2O2-induced cell death in rat HBZY-1 cells assessed as increase in cell viability at 6 uM preincubated for 2 hrs with 6 nM ZNPP prior to compound addition followed by 2 hrs incubation before H2O2 addition and measured after 24 hrs by MTT assay; format: functional, cell-based
# [20] = biological target: T3, Nuclear factor erythroid 2-related factor 2 (Homo sapiens) (UniProt Q16236); test: Activation of Nrf2 (unknown origin) expressed in HEK293 cells after 16 hrs by luciferase reporter gene assay; format: cell-based
# T3 sequence (whole entry): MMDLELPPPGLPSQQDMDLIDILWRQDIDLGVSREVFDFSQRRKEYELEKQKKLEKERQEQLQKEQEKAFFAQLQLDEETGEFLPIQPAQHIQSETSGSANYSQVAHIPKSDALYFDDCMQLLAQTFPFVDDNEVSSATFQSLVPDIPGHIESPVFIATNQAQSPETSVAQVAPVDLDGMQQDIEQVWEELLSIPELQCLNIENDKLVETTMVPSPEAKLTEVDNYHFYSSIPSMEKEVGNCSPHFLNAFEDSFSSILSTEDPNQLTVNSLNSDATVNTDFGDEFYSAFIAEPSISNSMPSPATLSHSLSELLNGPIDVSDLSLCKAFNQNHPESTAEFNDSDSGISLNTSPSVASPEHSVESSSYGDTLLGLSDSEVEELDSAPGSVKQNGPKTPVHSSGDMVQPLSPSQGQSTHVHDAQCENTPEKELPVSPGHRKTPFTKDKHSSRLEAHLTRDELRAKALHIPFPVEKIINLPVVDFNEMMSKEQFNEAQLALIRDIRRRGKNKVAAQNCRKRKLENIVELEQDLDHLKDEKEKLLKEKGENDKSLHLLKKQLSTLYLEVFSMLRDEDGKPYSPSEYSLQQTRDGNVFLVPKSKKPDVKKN
# HBZY-1 [21] = test: Cytoprotection against H2O2-induced cell death in rat HBZY-1 cells assessed as increase in cell viability at 6 uM pre-incubated for 2 hrs with 100 nM TRG prior to compound addition followed by 2 hrs incubation before H2O2 addition and measured after 24 hrs by MTT assay; format: functional, cell-based
# [22] = biological target: T2, Keap1/Nrf2 (Homo sapiens); test: Induction of Keap1/Nrf2 (unknown origin) interaction assessed as increase in Nfr2 level in absence of DTT by Western blot analysis; format: protein assay
# HBZY-1 [23] = test: Cytoprotection against H2O2-induced cell death in rat HBZY-1 cells assessed as increase in cell viability at 6 uM preincubated for 2 hrs with 200 nM TRG prior to compound addition followed by 2 hrs incubation before H2O2 addition and measured after 24 hrs by MTT assay; format: functional, cell-based
# HBZY-1 [24] = test: Cytoprotection against H2O2-induced cell death in rat HBZY-1 cells assessed as increase in cell viability at 6 uM preincubated for 2 hrs with 20 nM BSO prior to compound addition followed by 2 hrs incubation before H2O2 addition and measured after 24 hrs by MTT assay; format: functional, cell-based
# HBZY-1 [25] = test: Antioxidant activity in rat HBZY-1 cells assessed as inhibition of H2O2-induced ROS accumulation […] for 12 hrs followed by H2O2 addition and measured after 3 hrs by DCFHA-DA/FITC staining-based FACS analysis; format: functional, cell-based
# HBZY-1 [26] = test: Cytoprotection against H2O2-induced cell death in rat HBZY-1 cells assessed as increase in cell viability at 6 uM preincubated for 2 hrs followed by H2O2 addition and measured after 24 hrs by MTT assay; format: functional, cell-based
smiles,measurement,setting,value
Oc1ccc(/C=C/c2cc(O)cc(O)c2)cc1,Activity,[1],Active
same,Activity,[2],Active
same,Activity,[3],Active
same,Activity,[4],Active
same,Activity,[5],Active
same,Activity,[6],Active
same,Activity,[7],Active
same,Activity,[8],Active
COC(=O)c1cc(OC)c2c(c1-c1c(/C=C/C(=O)Nc3ccc(OC)c(OC)c3)cc(OC)c3c1OCO3)OCO2,IC50,HBZY-1 [9],> 200 µM
COC(=O)c1cc(OC)c2c(c1-c1c(/C=C(\C#N)C(=O)Nc3ccccc3OC)cc(OC)c3c1OCO3)OCO2,Activity,HBZY-1 [10],Toxic
same,viability at 6 µM,HBZY-1 [11],99.2%
same,IC50,HBZY-1 [9],> 200 µM
same,Activity,HBZY-1 [12],Dose-dependent effect
COC(=O)c1cc(OC)c2c(c1-c1c(/C=C/C(=O)NCCc3ccc(OC)c(OC)c3)cc(OC)c3c1OCO3)OCO2,IC50,HBZY-1 [9],> 200 µM
COC(=O)c1cc(OC)c2c(c1-c1c(/C=C/C(=O)NCc3ccc(OC)cc3)cc(OC)c3c1OCO3)OCO2,IC50,HBZY-1 [9],> 200 µM
COC(=O)c1cc(OC)c2c(c1-c1c(/C=C/C(=O)Nc3cc(OC)c(OC)c(OC)c3)cc(OC)c3c1OCO3)OCO2,IC50,HBZY-1 [9],> 200 µM
COC(=O)c1cc(OC)c2c(c1-c1c(/C=C(\C#N)C(=O)NCc3ccc(OC)cc3)cc(OC)c3c1OCO3)OCO2,IC50,HBZY-1 [9],> 200 µM
COC(=O)c1cc(OC)c2c(c1-c1c(/C=C/C(=O)Nc3ccccc3OC)cc(OC)c3c1OCO3)OCO2,viability at 6 µM,HBZY-1 [11],90.6%
same,IC50,HBZY-1 [9],> 200 µM
CCCCNC(=O)/C=C/c1cc(OC)c2c(c1-c1c(C(=O)OC)cc(OC)c3c1OCO3)OCO2,IC50,HBZY-1 [9],> 200 µM
COC(=O)c1cc(OC)c2c(c1-c1c(/C=C(\C#N)C(=O)Nc3ccc(OC)c(OC)c3)cc(OC)c3c1OCO3)OCO2,IC50,HBZY-1 [9],> 200 µM
COC(=O)c1cc(OC)c2c(c1-c1c(C(=O)OC)cc(OC)c3c1OCO3)OCO2 [BIFENDATE],viability at 6 µM,HBZY-1 [11],66.1%
same,viability at 100 µM,HBZY-1 [13],89.8%
COC(=O)c1cc(OC)c2c(c1-c1c(/C=C(\C#N)C(=O)NCCc3ccc(OC)c(OC)c3)cc(OC)c3c1OCO3)OCO2,IC50,HBZY-1 [9],> 200 µM
CCCCNC(=O)/C(C#N)=C/c1cc(OC)c2c(c1-c1c(C(=O)OC)cc(OC)c3c1OCO3)OCO2,viability at 6 µM,HBZY-1 [11],95.3%
same,IC50,HBZY-1 [9],> 200 µM
COC(=O)c1cc(OC)c2c(c1-c1c(/C=C(\C#N)C(=O)Nc3ccc(OC)cc3)cc(OC)c3c1OCO3)OCO2,inhibition,[14],inactive
same,Activity,HBZY-1 [15],inactive
same,Activity,HBZY-1 [16],inactive
same,Activity,HBZY-1 [10],Non-Toxic
same,viability at 6 µM,HBZY-1 [11],97.2%
same,inhibition,[17],inactive
same,Activity,[18],Active
same,Activity,HBZY-1 [19],inactive
same,Activity,[20],Dose-dependent effect
same,IC50,HBZY-1 [9],> 200 µM
same,Activity,HBZY-1 [21],inactive
same,Activity,[22],Active
same,Activity,HBZY-1 [23],inactive
same,Activity,HBZY-1 [24],inactive
same,Activity,HBZY-1 [12],Dose-dependent effect
same,inhibition,HBZY-1 [25],Dose-dependent effect
COC(=O)c1cc(OC)c2c(c1-c1c(/C=C(\C#N)C(=O)Nc3cc(OC)c(OC)c(OC)c3)cc(OC)c3c1OCO3)OCO2,IC50,HBZY-1 [9],> 200 µM
COc1ccccc1NC(=O)/C(C#N)=C/c1ccc(OC)c(OC)c1,Activity,HBZY-1 [26],inactive
same,IC50,HBZY-1 [9],> 200 µM
COC(=O)c1cc(OC)c2c(c1-c1c(/C=C/C(=O)Nc3ccc(OC)cc3)cc(OC)c3c1OCO3)OCO2,IC50,HBZY-1 [9],> 200 µM
COc1ccc(/C=C(\C#N)C(=O)Nc2ccccc2OC)cc1,Activity,HBZY-1 [26],inactive
same,IC50,HBZY-1 [9],> 200 µM
COc1ccccc1NC(=O)/C(C#N)=C/c1cc(OC)c(OC)c(OC)c1,Activity,HBZY-1 [26],inactive
same,IC50,HBZY-1 [9],> 200 µM

# — ChEMBL document CHEMBL4371015, “Synthesis and biological evaluation of bifendate derivatives bearing acrylamide moiety as novel antioxidant agents” (Eur J Med Chem, 2019)
